Laboratory results: ChEMBL document CHEMBL1143236, “Design, synthesis, FGF-1 binding, and molecular modeling studies of conformationally flexible heparin mimetic disaccharides” (Bioorg Med Chem Lett, 2008)

Target: Fibroblast growth factor 1 (Homo sapiens, UniProt P05230)
Assay: Binding affinity at FGF1

Sequence of Fibroblast growth factor 1 (P05230 whole entry): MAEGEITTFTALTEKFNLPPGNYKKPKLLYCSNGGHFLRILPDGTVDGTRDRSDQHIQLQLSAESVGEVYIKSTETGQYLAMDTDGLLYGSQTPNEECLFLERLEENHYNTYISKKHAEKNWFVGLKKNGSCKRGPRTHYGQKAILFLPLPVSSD

Structure (SMILES)	Kd [µM]
CO[C@@H]1OC[C@@H](O[C@H]2O[C@H](CO)[C@H](O)[C@H](O)[C@H]2OS(=O)(=O)O)[C@H](OS(=O)(=O)O)[C@H]1OS(=O)(=O)O	1400
CO[C@@H]1O[C@H](COS(=O)(=O)O)[C@@H](O[C@H]2O[C@H](CO)[C@H](O)[C@H](O)[C@H]2OS(=O)(=O)O)[C@H](OS(=O)(=O)O)[C@H]1OS(=O)(=O)O	77.5
COC[C@H]1O[C@H](O[C@H]2[C@H](OS(=O)(=O)O)[C@@H](OS(=O)(=O)O)[C@H](OC)O[C@@H]2COS(=O)(=O)O)[C@H](OS(=O)(=O)O)[C@@H](OC)[C@H]1OC	233

Now those with a lower Kd, led by results:

Kd [µM]	Structure (SMILES)
47.9	CO[C@@H]1O[C@H](COS(=O)(=O)O)[C@@H](O[C@H]2O[C@H](COS(=O)(=O)O)[C@H](OC)[C@H](OC)[C@H]2OS(=O)(=O)O)[C@H](OS(=O)(=O)O)[C@H]1OS(=O)(=O)O
21.8	CO[C@@H]1O[C@H](COS(=O)(=O)O)[C@@H](O[C@H]2O[C@H](COS(=O)(=O)O)[C@H](O)[C@H](O)[C@H]2OS(=O)(=O)O)[C@H](OS(=O)(=O)O)[C@H]1OS(=O)(=O)O
